Patent US20090239926A1, “METHODS FOR THE TREATMENT OF PSORIASIS OR PSORIATIC ARTHRITIS USING CYCLOPROPYL-N-CARBOXAMIDE” (priority 2008, published 2009)
Several values for one entry are separate records, joined by “and”; a condition that tells them apart may be missing. Identical values can stand only once.

How the values were obtained:
[1] = test system: PDE4 enzyme purified from U937 human monocytic cells; experiment: PDE4 inhibition; type: biochemical
Procedure: PDE4 enzyme was purified from U937 human monocytic cells by gel filtration chromatography (Muller et al. 1998, Bioorg. & Med. Chem. Lett. 1998. 8 (19):2669-74). Phosphodiesterase reactions were carried out in 50 MM Tris HCl pH 7.5, 5 mM MgCl2, 1 μM cAMP, 10 nM [^3H]-cAMP for 30 min at 30, terminated by boiling, treated with 1 mg/ml snake venom, and separated using AG-lXS ion exchange resin (BioRad).
The specificity of Compound A for PDE4 was assessed by testing at a single concentration (10 μM) against bovine PDE1, human PDE2, PDE3 and PDE5 from human platelets, and PDE6 from bovine retinal rod outer segments.

[2] = test system: LPS-stimulated human whole blood TNF-α production; experiment: LPS-induced TNF-α production in human whole blood; type: cell-based
Procedure: LPS-induced TNF-α production in Human Whole Blood: The ability of Compound A to inhibit LPS-induced TNF-α production by human whole blood was measured as described above for the LPS-induced TNF-α assay in human PBMC, except that freshly drawn whole blood was used instead of PBMC.

[3] = test system: CD18 expression on neutrophils; experiment: fMLF-induced neutrophil CD18 expression; type: cell-based; conditions: Homo sapiens, 0.5 h, 30 nM fMLF, 30 minutes, flow cytometry
Procedure: CD18/CD11b (Mac-1) expression on neutrophils was measured with the following modifications. (Derian, C. K., et al., J Immunol, 1995. 154(1): 308-17). Neutrophils were isolated as described above, then resuspended in complete medium at 1×10^6 cells/ml, pretreated with Compound A at 10, 1, 0.1, 0.01, and 0 μM in duplicate at a final DMSO concentration of 0.1% for 10 minutes at 37° C. 5% CO2. Cells were then stimulated with 30 nM fMLF for 30 minutes and then chilled to 4° C. Cells were treated with rabbit IgG (Jackson ImmunoResearch Labs, West Grove, Pa., USA) (10 μg/1×10^6 cells) to block Fc receptors, stained with CD18-FITC and CD11b-PE (Becton Dickinson), and analyzed by flow cytometry on a FACSCalibur. CD18/CD11b expression (mean fluorescence) in the absence of stimulation was subtracted from all samples to obtain inhibition curves and calculate IC50.

CCOc1cc([C@@H](CS(C)(=O)=O)N2Cc3cccc(NC(=O)C4CC4)c3C2=O)ccc1OC [Compound A, cyclopropyl-N-{2-[(1S)-1-(3-ethoxy-4-methoxyphenyl)-2-(methylsulfonyl)ethyl]-3-oxoisoindoline-4-yl}carboxamide]
IC50 ([1]; 1 μM cAMP): 100 nM | PDE4 IC50 (from U937 cells) ([1]; 1 μM cAMP): 0.05 µg/mL | PDE4 % inhibition ([1]; at 10 μM): 95% | IC50 [2]: 240 nM and 0.11 µg/mL | IC50 [3]: 23 nM and 0.011 µg/mL
